Experimental data taken from ChEMBL document CHEMBL1201862, “PubChem BioAssay data set” (2004).
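A five-concentration, 48-hour dose response in 96-well plates underlies each endpoint, interpolated linearly between surrounding concentrations. The concentration for 50% growth inhibition is given as GI50.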 Active and inactive are the calls of the source. Rule as the data show it: active = GI50 up to about 1.1 µM and inactive = higher.

Columns and labels:
Assay in all cases: NCI-60 cell line screen, 48 h
[1] = test system: MOLT-4
[2] = test system: HOP-18
[3] = test system: HCT-15
[4] = test system: OVCAR-8
[5] = test system: U-251
[6] = test system: SF-268
[7] = test system: SK-OV-3
[8] = test system: UACC-62
[9] = test system: IGROV-1
[10] = test system: SNB-75
[11] = test system: OVCAR-3
[12] = test system: COLO 205
[13] = test system: SW-620
[14] = test system: M19-MEL
[15] = test system: SNB-78
[16] = test system: DLD-1
[17] = test system: UO-31
[18] = test system: 786-0
[19] = test system: NCI-H522
[20] = test system: CAKI-1
[21] = test system: OVCAR-5
[22] = test system: NCI-H460
[23] = test system: DMS-114
[24] = test system: K562
[25] = test system: SNB-19
[26] = test system: Malme-3M
[27] = test system: SK-MEL-5
[28] = test system: SK-MEL-28
[29] = test system: DMS-273
[30] = test system: SR
[31] = test system: HT-29
[32] = test system: SN12C
[33] = test system: ACHN
[34] = test system: OVCAR-4
[35] = test system: SF-295
[36] = test system: HL-60
[37] = test system: M14
[38] = test system: XF498
[39] = test system: HOP-62
[40] = test system: HOP-92
[41] = test system: SF-539
[42] = test system: RXF 393
[43] = test system: KM-20L2
[44] = test system: LXFL 529
[45] = test system: A498
[46] = test system: EKVX
[47] = test system: HCT-116
[48] = test system: KM12
[49] = test system: CCRF-CEM
[50] = test system: SK-MEL-2
[51] = test system: TK-10
[52] = test system: A549
[53] = test system: HCC 2998
[54] = test system: NCI-H226
[55] = test system: LOX IMVI
[56] = test system: NCI-H23
[57] = test system: RXF 631
[58] = test system: UACC-257
[59] = test system: RPMI-8226

**Q.** How did the GI50 [1] turn out when `C/C(=N\NC(=N)N)C(CN(CC(C)C)CC(C)C)C(=O)Nc1ccc(C)cc1C` (stereo not given) was run?
**A.** > 100 µM (inactive)

**Q.** What about the GI50 [2] of the same molecule?
**A.** > 100 µM (inactive)

**Q.** What about the GI50 [3] of the same molecule?
**A.** > 100 µM

**Q.** And the GI50 [4]?
**A.** > 100 µM (inactive)

**Q.** What about the GI50 [5] of the same molecule?
**A.** > 100 µM (inactive)

**Q.** What about the GI50 [6] of the same molecule?
**A.** > 100 µM (inactive)

**Q.** What about the GI50 [7] of the same molecule?
**A.** > 100 µM (inactive)

**Q.** And the GI50 [8]?
**A.** > 100 µM (inactive)

**Q.** And the GI50 [9]?
**A.** > 100 µM (inactive)

**Q.** And the GI50 [10]?
**A.** > 100 µM (inactive)

**Q.** And the GI50 [11]?
**A.** > 100 µM (inactive)

**Q.** And the GI50 [12]?
**A.** > 100 µM (inactive)

**Q.** And the GI50 [13]?
**A.** > 100 µM (inactive)

**Q.** What about the GI50 [14] of the same molecule?
**A.** > 100 µM (inactive)

**Q.** And the GI50 [15]?
**A.** > 100 µM (inactive)

**Q.** And the GI50 [16]?
**A.** > 100 µM (inactive)

**Q.** What about the GI50 [17] of the same molecule?
**A.** 54.7 µM (inactive)

**Q.** What about the GI50 [18] of the same molecule?
**A.** > 100 µM (inactive)

**Q.** And the GI50 [19]?
**A.** > 100 µM (inactive)

**Q.** What about the GI50 [20] of the same molecule?
**A.** > 100 µM (inactive)

**Q.** And the GI50 [21]?
**A.** > 100 µM (inactive)

**Q.** What about the GI50 [22] of the same molecule?
**A.** > 100 µM (inactive)

**Q.** What about the GI50 [23] of the same molecule?
**A.** > 100 µM (inactive)

**Q.** What about the GI50 [24] of the same molecule?
**A.** > 100 µM (inactive)

**Q.** What about the GI50 [25] of the same molecule?
**A.** > 100 µM (inactive)

**Q.** And the GI50 [26]?
**A.** > 100 µM (inactive)

**Q.** What about the GI50 [27] of the same molecule?
**A.** > 100 µM (inactive)

**Q.** And the GI50 [28]?
**A.** > 100 µM (inactive)

**Q.** And the GI50 [29]?
**A.** > 100 µM (inactive)

**Q.** And the GI50 [30]?
**A.** > 100 µM (inactive)

**Q.** What about the GI50 [31] of the same molecule?
**A.** > 100 µM (inactive)

**Q.** And the GI50 [32]?
**A.** > 100 µM (inactive)

**Q.** And the GI50 [33]?
**A.** > 100 µM (inactive)

**Q.** What about the GI50 [34] of the same molecule?
**A.** > 100 µM (inactive)

**Q.** And the GI50 [35]?
**A.** > 100 µM (inactive)

**Q.** And the GI50 [36]?
**A.** 91.8 µM (inactive)

**Q.** And the GI50 [37]?
**A.** > 100 µM (inactive)

**Q.** And the GI50 [38]?
**A.** 59.6 µM (inactive)

**Q.** What about the GI50 [39] of the same molecule?
**A.** > 100 µM (inactive)

**Q.** And the GI50 [40]?
**A.** 59.2 µM (inactive)

**Q.** What about the GI50 [41] of the same molecule?
**A.** > 100 µM (inactive)

**Q.** And the GI50 [42]?
**A.** > 100 µM (inactive)

**Q.** What about the GI50 [43] of the same molecule?
**A.** > 100 µM (inactive)

**Q.** What about the GI50 [44] of the same molecule?
**A.** > 100 µM (inactive)

**Q.** What about the GI50 [45] of the same molecule?
**A.** > 100 µM (inactive)

**Q.** And the GI50 [46]?
**A.** 81.5 µM (inactive)

**Q.** What about the GI50 [47] of the same molecule?
**A.** > 100 µM (inactive)

**Q.** What about the GI50 [48] of the same molecule?
**A.** > 100 µM (inactive)

**Q.** And the GI50 [49]?
**A.** > 100 µM (inactive)

**Q.** And the GI50 [50]?
**A.** > 100 µM (inactive)

**Q.** What about the GI50 [51] of the same molecule?
**A.** > 100 µM (inactive)

**Q.** What about the GI50 [52] of the same molecule?
**A.** > 100 µM (inactive)

**Q.** What about the GI50 [53] of the same molecule?
**A.** > 100 µM (inactive)

**Q.** What about the GI50 [54] of the same molecule?
**A.** > 100 µM (inactive)

**Q.** And the GI50 [55]?
**A.** > 100 µM (inactive)

**Q.** What about the GI50 [56] of the same molecule?
**A.** > 100 µM (inactive)

**Q.** And the GI50 [57]?
**A.** > 100 µM (inactive)

**Q.** And the GI50 [58]?
**A.** > 100 µM (inactive)

**Q.** How did the GI50 [1] turn out when `Cn1c(=O)c(C2c3ccccc3Oc3c2c(=O)n(C)c2ccccc32)c(O)c2ccccc21` (stereo not given) was run?
**A.** 39.4 µM (inactive)

**Q.** What about the GI50 [2] of the same molecule?
**A.** > 100 µM (inactive)

**Q.** What about the GI50 [3] of the same molecule?
**A.** 32.4 µM

**Q.** And the GI50 [4]?
**A.** > 100 µM (inactive)

**Q.** What about the GI50 [5] of the same molecule?
**A.** 41.2 µM (inactive)

**Q.** And the GI50 [6]?
**A.** 66.4 µM (inactive)

**Q.** What about the GI50 [7] of the same molecule?
**A.** 63.8 µM (inactive)

**Q.** What about the GI50 [8] of the same molecule?
**A.** 44.9 µM (inactive)

**Q.** And the GI50 [9]?
**A.** 59.2 µM (inactive)

**Q.** And the GI50 [10]?
**A.** 40.9 µM (inactive)

**Q.** And the GI50 [11]?
**A.** 52 µM (inactive)

**Q.** What about the GI50 [12] of the same molecule?
**A.** 30.6 µM (inactive)

**Q.** And the GI50 [13]?
**A.** 43.9 µM (inactive)

**Q.** What about the GI50 [14] of the same molecule?
**A.** > 100 µM (inactive)

**Q.** And the GI50 [15]?
**A.** 53.3 µM (inactive)

**Q.** And the GI50 [16]?
**A.** 50.9 µM (inactive)

**Q.** What about the GI50 [17] of the same molecule?
**A.** 73.5 µM (inactive)

**Q.** What about the GI50 [18] of the same molecule?
**A.** 27.2 µM (inactive)

**Q.** And the GI50 [19]?
**A.** 24.3 µM (inactive)

**Q.** What about the GI50 [59] of the same molecule?
**A.** 38.5 µM (inactive)

**Q.** And the GI50 [20]?
**A.** 46.9 µM (inactive)

**Q.** And the GI50 [21]?
**A.** > 100 µM (inactive)

**Q.** And the GI50 [22]?
**A.** > 100 µM (inactive)

**Q.** What about the GI50 [23] of the same molecule?
**A.** 49.1 µM (inactive)

**Q.** And the GI50 [24]?
**A.** 51.2 µM (inactive)

**Q.** What about the GI50 [25] of the same molecule?
**A.** 44.4 µM (inactive)

**Q.** And the GI50 [26]?
**A.** 73.5 µM (inactive)

**Q.** And the GI50 [27]?
**A.** > 100 µM (inactive)

**Q.** And the GI50 [28]?
**A.** 86.9 µM (inactive)

**Q.** What about the GI50 [29] of the same molecule?
**A.** 68.7 µM (inactive)

**Q.** And the GI50 [30]?
**A.** 42.1 µM (inactive)

**Q.** What about the GI50 [31] of the same molecule?
**A.** 92.7 µM (inactive)

**Q.** What about the GI50 [32] of the same molecule?
**A.** 46.7 µM (inactive)

**Q.** What about the GI50 [33] of the same molecule?
**A.** 39.8 µM (inactive)

**Q.** And the GI50 [34]?
**A.** 86.7 µM (inactive)

**Q.** What about the GI50 [35] of the same molecule?
**A.** 54.5 µM (inactive)

**Q.** What about the GI50 [36] of the same molecule?
**A.** 30.1 µM (inactive)

**Q.** What about the GI50 [37] of the same molecule?
**A.** 60 µM (inactive)

**Q.** What about the GI50 [38] of the same molecule?
**A.** 26.9 µM (inactive)

**Q.** And the GI50 [39]?
**A.** > 100 µM (inactive)

**Q.** And the GI50 [40]?
**A.** 42.9 µM (inactive)

**Q.** What about the GI50 [41] of the same molecule?
**A.** 76.2 µM (inactive)

**Q.** And the GI50 [42]?
**A.** 63 µM (inactive)

**Q.** And the GI50 [43]?
**A.** 59 µM (inactive)

**Q.** And the GI50 [44]?
**A.** 47.9 µM (inactive)

**Q.** And the GI50 [46]?
**A.** 41.2 µM (inactive)

**Q.** And the GI50 [47]?
**A.** 43.2 µM (inactive)

**Q.** And the GI50 [48]?
**A.** 69.8 µM (inactive)

**Q.** What about the GI50 [50] of the same molecule?
**A.** 61.7 µM (inactive)

**Q.** What about the GI50 [51] of the same molecule?
**A.** 33.3 µM (inactive)

**Q.** What about the GI50 [52] of the same molecule?
**A.** 72.6 µM (inactive)

**Q.** And the GI50 [53]?
**A.** 44.3 µM (inactive)

**Q.** And the GI50 [54]?
**A.** 46 µM (inactive)

**Q.** And the GI50 [55]?
**A.** 37.9 µM (inactive)

**Q.** What about the GI50 [56] of the same molecule?
**A.** 40.6 µM (inactive)

**Q.** What about the GI50 [57] of the same molecule?
**A.** 58.2 µM (inactive)

**Q.** What about the GI50 [58] of the same molecule?
**A.** 24.1 µM (inactive)
